Test results: ChEMBL document CHEMBL1201862, “PubChem BioAssay data set” (2004)
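Following 48 hours of exposure in 96-well plates, responses at five concentrations were used to interpolate endpoints linearly. GI50: concentration for 50% inhibition of growth.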 Active and inactive are the calls of the source. Rule as the data show it: active = GI50 up to about 1.1 µM and inactive = higher.

How the values were obtained:
Test in all cases: NCI-60 cell line screen, 48 h
CCRF-CEM = system: CCRF-CEM
HCC 2998 = system: HCC 2998
HCT-15 = system: HCT-15
IGROV-1 = system: IGROV-1
M14 = system: M14
MOLT-4 = system: MOLT-4
NCI-H23 = system: NCI-H23
NCI-H460 = system: NCI-H460
NCI-H522 = system: NCI-H522
OVCAR-3 = system: OVCAR-3
OVCAR-4 = system: OVCAR-4
OVCAR-5 = system: OVCAR-5
SF-268 = system: SF-268
SK-OV-3 = system: SK-OV-3
SN12C = system: SN12C
TK-10 = system: TK-10
UO-31 = system: UO-31
MCF7 = system: MCF7
SK-MEL-28 = system: SK-MEL-28

Compound	GI50 (CCRF-CEM)	GI50 (HCC 2998)	GI50 (HCT-15)	GI50 (IGROV-1)	GI50 (M14)	GI50 (MOLT-4)	GI50 (NCI-H23)	GI50 (NCI-H460)	GI50 (NCI-H522)	GI50 (OVCAR-3)	GI50 (OVCAR-4)	GI50 (OVCAR-5)	GI50 (SF-268)	GI50 (SK-OV-3)	GI50 (SN12C)	GI50 (TK-10)	GI50 (UO-31)	GI50 (MCF7)	GI50 (SK-MEL-28)
Cc1nc2cc3nc4ccccc4c(O)c3cc2s1	> 100 µM (inactive)	> 100 µM (inactive)	> 100 µM	> 100 µM (inactive)	> 100 µM (inactive)	> 100 µM (inactive)	> 100 µM (inactive)	> 100 µM (inactive)	> 100 µM (inactive)	> 100 µM (inactive)	> 100 µM (inactive)	> 100 µM (inactive)	> 100 µM (inactive)	> 100 µM (inactive)	> 100 µM (inactive)	> 100 µM (inactive)	> 100 µM (inactive)		
O=C1Nc2ccccc2/C1=N/NC(=S)N1CCCCC1		1.27 µM (inactive)	0.19 µM	0.138 µM (active)	0.29 µM (active)	0.354 µM (active)	1.39 µM (inactive)	0.0841 µM (active)	2.79 µM (inactive)	0.145 µM (active)	1.53 µM (inactive)	4.05 µM (inactive)	0.493 µM (active)	2.01 µM (inactive)	2.17 µM (inactive)	0.295 µM (active)	0.592 µM (active)	1.5 µM (inactive)	2.17 µM (inactive)
CC(=O)/C(=C\C1=CCCO1)C(=O)Nc1ccccc1C	> 100 µM (inactive)	> 100 µM (inactive)	> 100 µM	> 100 µM (inactive)	> 100 µM (inactive)	> 100 µM (inactive)	> 100 µM (inactive)	> 100 µM (inactive)	> 100 µM (inactive)	> 100 µM (inactive)	> 100 µM (inactive)	> 100 µM (inactive)	> 100 µM (inactive)	> 100 µM (inactive)	> 100 µM (inactive)	> 100 µM (inactive)	> 100 µM (inactive)		> 10 µM (inactive)
CCOC(=O)C1(c2ccccc2)CCCNCC1 (stereo unspecified)	28.1 µM (inactive)	> 100 µM (inactive)	72.9 µM	> 100 µM (inactive)	> 100 µM (inactive)	45.9 µM (inactive)	35.3 µM (inactive)	29 µM (inactive)	7.91 µM (inactive)	74.6 µM (inactive)	> 100 µM (inactive)	81.3 µM (inactive)	> 100 µM (inactive)	> 100 µM (inactive)	39.4 µM (inactive)	> 100 µM (inactive)	> 100 µM (inactive)		> 100 µM (inactive)
CC1(C)OC2[C@@H](CO[C@@]3([C@@H](O)CCO)OC(C)(C)O[C@@H]23)O1 (stereo partly specified)	> 100 µM (inactive)	> 100 µM (inactive)	> 100 µM	> 100 µM (inactive)	> 100 µM (inactive)	> 100 µM (inactive)	> 100 µM (inactive)	> 100 µM (inactive)	> 100 µM (inactive)	> 100 µM (inactive)	> 100 µM (inactive)	> 100 µM (inactive)	> 100 µM (inactive)		> 100 µM (inactive)	> 100 µM (inactive)	> 100 µM (inactive)	> 100 µM (inactive)	> 100 µM (inactive)
O=[N+]([O-])c1cc(I)cc(/C=N/NS(=O)(=O)c2ccc(F)cc2)c1O	22 µM (inactive)	33 µM (inactive)	27.3 µM	33.7 µM (inactive)	27.5 µM (inactive)	24.7 µM (inactive)	20 µM (inactive)	21.9 µM (inactive)	20.7 µM (inactive)	19 µM (inactive)	38.5 µM (inactive)	39 µM (inactive)	28.9 µM (inactive)	27.4 µM (inactive)	22.9 µM (inactive)	28.6 µM (inactive)	26.2 µM (inactive)		29.4 µM (inactive)
O=C(O)CCC(NC(=O)c1ccc(Oc2nc3ccccc3nc2-c2ccccc2)cc1)C(=O)O (stereo unspecified)	> 100 µM (inactive)	> 100 µM (inactive)	> 100 µM	> 100 µM (inactive)	> 100 µM (inactive)	> 100 µM (inactive)	> 100 µM (inactive)	> 100 µM (inactive)	> 100 µM (inactive)	> 100 µM (inactive)	> 100 µM (inactive)	> 100 µM (inactive)	> 100 µM (inactive)	> 100 µM (inactive)	> 100 µM (inactive)	> 100 µM (inactive)	> 100 µM (inactive)	> 100 µM (inactive)	> 100 µM (inactive)
Cc1ccc(S(=O)(=O)C2c3nc4ccccc4cc3-c3nc4ccccc4nc32)cc1 (stereo unspecified)	> 100 µM (inactive)	> 100 µM (inactive)	> 100 µM	> 100 µM (inactive)	> 100 µM (inactive)	> 100 µM (inactive)	> 100 µM (inactive)	> 10 µM (inactive)	> 100 µM (inactive)	> 100 µM (inactive)	> 100 µM (inactive)	> 100 µM (inactive)	> 100 µM (inactive)	0.693 µM (active)	> 100 µM (inactive)	> 100 µM (inactive)	> 100 µM (inactive)		> 100 µM (inactive)
COc1cc(C(N)=O)c(OC)c(OC)c1OC	> 100 µM (inactive)	> 100 µM (inactive)	> 100 µM	> 100 µM (inactive)	> 100 µM (inactive)	> 100 µM (inactive)	> 100 µM (inactive)	> 100 µM (inactive)	> 100 µM (inactive)	> 100 µM (inactive)	> 100 µM (inactive)	> 100 µM (inactive)	> 100 µM (inactive)	> 100 µM (inactive)	> 100 µM (inactive)	> 100 µM (inactive)	> 100 µM (inactive)		> 100 µM (inactive)
Nc1c(S(=O)(=O)c2ccc(Cl)cc2)c2nc3ccccc3nc2n2ccnc12	39.4 µM (inactive)	> 100 µM (inactive)	> 100 µM	98.6 µM (inactive)	> 100 µM (inactive)	> 100 µM (inactive)	> 100 µM (inactive)	63.4 µM (inactive)	53.7 µM (inactive)	> 100 µM (inactive)	14.5 µM (inactive)	> 100 µM (inactive)	43.1 µM (inactive)	38.4 µM (inactive)	> 100 µM (inactive)	24.9 µM (inactive)	> 100 µM (inactive)		> 100 µM (inactive)
CN(C)CC1CCCC/C1=N/O (stereo unspecified)	> 100 µM (inactive)	> 100 µM (inactive)	> 100 µM	> 100 µM (inactive)	> 100 µM (inactive)	> 100 µM (inactive)	> 100 µM (inactive)	> 100 µM (inactive)	> 100 µM (inactive)	> 100 µM (inactive)	> 100 µM (inactive)	> 100 µM (inactive)	> 100 µM (inactive)	> 100 µM (inactive)	> 100 µM (inactive)	> 100 µM (inactive)	> 100 µM (inactive)		> 100 µM (inactive)
O=[N+]([O-])c1ccc(-c2csc(=[N+]3CCCCC3)s2)cc1	4.91 µM (inactive)	21.1 µM (inactive)	29.2 µM	4.48 µM (inactive)	36.1 µM (inactive)	5.38 µM (inactive)	4.41 µM (inactive)	13.6 µM (inactive)	3.61 µM (inactive)	13.9 µM (inactive)	18.5 µM (inactive)	9.75 µM (inactive)	3.93 µM (inactive)	37.7 µM (inactive)	4.48 µM (inactive)	> 83.4 µM (inactive)	> 68.1 µM (inactive)		36.5 µM (inactive)
Cc1ccc2[nH]c3c(c2c1)CCC/C3=N/N=C(N)N	2.29 µM (inactive)	1.7 µM (inactive)		1.62 µM (inactive)	1.57 µM (inactive)	2.09 µM (inactive)	3.06 µM (inactive)	1.4 µM (inactive)	1.87 µM (inactive)	2.64 µM (inactive)	2.76 µM (inactive)	2.09 µM (inactive)		19.1 µM (inactive)	1.58 µM (inactive)		1.95 µM (inactive)	1.44 µM (inactive)	2.24 µM (inactive)
[O-][S+]1c2ccccc2N=C(c2ccc3ccccc3c2)CC1c1ccccc1F (stereo unspecified)	67.8 µM (inactive)	> 100 µM (inactive)	> 100 µM	> 100 µM (inactive)	> 100 µM (inactive)	48.2 µM (inactive)	> 100 µM (inactive)	> 100 µM (inactive)	72.3 µM (inactive)	> 100 µM (inactive)	> 100 µM (inactive)	> 100 µM (inactive)	> 100 µM (inactive)	> 100 µM (inactive)	> 100 µM (inactive)	> 100 µM (inactive)	> 100 µM (inactive)		> 100 µM (inactive)
O=C(Cc1nc2ccccc2c(=O)n1-c1ccccc1Cl)c1ccncc1	> 100 µM (inactive)	> 100 µM (inactive)	> 100 µM	> 100 µM (inactive)	> 100 µM (inactive)	> 100 µM (inactive)	> 100 µM (inactive)	> 100 µM (inactive)	> 100 µM (inactive)	> 100 µM (inactive)	68.2 µM (inactive)	> 100 µM (inactive)	> 100 µM (inactive)	> 100 µM (inactive)	> 100 µM (inactive)	> 100 µM (inactive)	> 100 µM (inactive)		> 100 µM (inactive)
CC(C)(C)CC(C)(C)c1ccc(OCCOCC[N+](C)(C)Cc2ccccc2)cc1 [BENZETHONIUM CHLORIDE]	1.79 µM (inactive)	1.5 µM (inactive)	20.5 µM	1.52 µM (inactive)	2.08 µM (inactive)	2.22 µM (inactive)	1.66 µM (inactive)	3.05 µM (inactive)	1.66 µM (inactive)	1.52 µM (inactive)	2.06 µM (inactive)	6.17 µM (inactive)	1.94 µM (inactive)	7.43 µM (inactive)	3.52 µM (inactive)	3.64 µM (inactive)	21.6 µM (inactive)		1.86 µM (inactive)
